# From patent US10851051B2, “Compositions and methods for treating multiple myeloma” (THE BROAD INSTITUTE, INC., priority 2015, dated 2020)
# Entries after “also recorded” stand apart in the source; their conditions may differ.
# Tests used:
# [1] = system: purified proteins (recombinant proteins, histones); assay: Incubation of labeled compound with purified proteins (SDS-PAGE autoradiography, mass spectrometry); assay type: biochemical; details: FIG. 12, 13
# MOLP5 cells [2] = assay: Growth inhibition of MOLP5 cells by BRD9647 analogs; assay type: cell-based; details: FIG. 1E; for growth inhibition in MOLP5 cells compared with other analogs: various concentrations
# From the text: (§1) BRD9647 was identified in a phenotypic screening of multiple myeloma cells as a growth inhibitor of certain stroma-dependent myeloma cells. […] FIG. 1B is a plot showing viability of multiple myeloma cell lines (primary multiple myeloma (primary MM) cells (with stroma), MOLP5 (with stroma), and MM1S (with stroma)) treated with various concentrations of BRD9647. For these experiments GFP-labeled MOLP5 and MM1S cells were co-cultured with unlabeled primary human bone marrow stromal cells in 384-well plates and exposed to increasing concentrations of BRD9647 for 3 days. At the end of this period, wells were imaged in the GFP channel with the IXMicro automated high-throughput microscope (Molecular Devices), remaining GFP positive cells were quantified using the MetaXpress software (Molecular Devices) and expressed as percentages of DMSO (vehicle) controls. Unlabeled primary MM cells were similar treated with BRD9647 but were stained with the calcein-acetoxymethyl ester dye at the end of the treatment period. The dye fluoresces green inside viable cells that contain esterase enzymes. Viable cells were imaged and quantified similar to GFP-positive myeloma cell-lines using size, shape and staining intensity to distinguish primary MM from stromal cells. FIG. 1C depicts images showing the viability of primary MM and MOLP5 myeloma cell lines that received BRD9647 treatment in the presence and absence of stromal co-culture. […] Viable cells in these experiments after 3 days of compound exposure were measured using the Cell Titer Glo reagent (Promega).
# Fluoro-benzoyl analogs of BRD9647 were synthesized and used to study the structure-function relationship between BRD9647 and each compound's ability to inhibit growth in MOLP5 cells. […] The BRD9647 analogs measured were either mono-fluorinated at the para (FIG. 1F), meta (FIG. 1G), or ortho (FIG. 1H) positions of the benzoyl ring, or tri-fluorinated at both meta positions and one ortho position of the ring (FIG. 1I). […]
# [3] = system: stroma-dependent myeloma cells (primary MM, MOLP5); assay: Viability of stroma-dependent myeloma cells co-cultured with bone marrow stromal cells (imaging, 3 days); assay type: cell-based; details: primary MM and MOLP5, FIG. 1B-1C
# From the text: as §1, with “cells.” for “cells. FIG. 1C depicts images showing the viability of primary MM and MOLP5 myeloma cell lines that received BRD9647 treatment in the presence and absence of stromal co-culture.”
# [4] = system: ~100 cell lines from the Broad Institute CTD2 Center; assay: Viability of ~100 Broad CTD2 cell lines (Cell Titer Glo, 3 days); assay type: cell-based; details: 3 days compound exposure, FIG. 1D
# From the text: as §1, with “cells.” for “cells. FIG. 1C depicts images showing the viability of primary MM and MOLP5 myeloma cell lines that received BRD9647 treatment in the presence and absence of stromal co-culture.”
# [5] = system: MOLP5 cells expressing AZIN1-WT; assay: Viability of MOLP5 cells expressing wild-type AZIN1 under BRD9647; assay type: cell-based; details: FIG. 4D, 5A; lentiviral AZIN1-WT
# From the text: MOLP5 cells sensitive to BRD9647 contained a mutation in AZIN1 (FIG. 4B). The mutation in AZIN1 was S367G. MOLP5 cells raised to be resistant to BRD9647 through serial exposures to increasing concentrations of BRD9647 over 3 months (MOLP5-R) lost the AZIN1 mutation that conferred sensitivity to BRD9647 (FIG. 4C). For experiments in FIGS. 4B and 4C, RNA was isolated from MOLP5 or MOLP5-R cells and converted into complementary DNA (cDNA). The AZIN1 polynucleotide was PCR amplified from cDNA then subject to Sanger sequencing. […] The growth of MOLP5 AZIN1-WT expressing cells in the presence of BRD9647 resembles the growth of untreated MOLP5 cells. For these experiments, lentiviral vectors (pLX_TRC304) encoding the AZIN1 open reading frame with the wild-type sequence or S367G mutant sequence and the puromycin resistance gene were transduced into MOLP5 cells which were then subjected to puromycin selection. […] A schematic of AZIN1 S367G's role in polyamine synthesis is shown at FIG. 6.
# MOLP5 cells [6] = assay: Spermidine rescue of growth inhibition in MOLP5 cells; assay type: cell-based; details: MOLP5 + 10 or 100 μM spermidine, FIG. 7A
# Experimental: MOLP5 cells with 100 μM spermidine (“MOLP5+100 μM Spd”), and MOLP5 cells with 10 μM spermidine (“MOLP5+10 μM Spd”), each.
# Polyamines such as spermidine rescued the effects of BRD9647. FIG. 7B depicts the structure of spermidine. […] However, BRD9647 may be reactive with spermidine, as polyamines such as spermidine or spermine can directly react with BRD9647 via a benzoylation reaction (FIG. 7C) to form benzoylated polyamine products (FIG. 8 and FIG. 9).
# MOLP5 cells [7] = assay: Gene expression profiling of treated MOLP5 cells (microarray, GSEA); assay type: cell-based; details: 10 μM, 6 hours
# Experimental: Gene-expression analysis identified endoplasmic reticulum (ER) stress as an effect of BRD9647 in BRD9647-sensitive cells. […] For this experiment, MOLP5 cells were exposed to DMSO or 10 μM BRD9647 for 6 hours then subject to total RNA extraction using the TRIzol reagent (Thermo-Fisher). RNA was then hybridized to the Affymetrix U133 2.0 Plus oligonucleotide microarray (Affymetrix) and relative transcripts quantified following the manufacturer's protocol. Differential gene expression analysis was conducted using the Comparative Marker Selection module of GenePattern software (www.broadinstitute.org/genepattern). […] As show in FIG. 2C, Connectivity Map (CMap) analysis was conducted (www.broadinstitute.org/cmap) to compare a gene expression profile of […] with known gene expression profiles of over 5000 compounds to identify potential drugs showing a similar mechanism of action. Protein synthesis inhibitors of interest identified by the analysis are shown in boxes (FIG. 2C).
# [8] = system: benzoylated lysines on proteins; assay: Immunoblot for benzoylated lysines (Kbz antibody) in treated cells; assay type: cell-based; details: versus DMSO controls, FIG. 15
# BRD9647-sensitive cells = assay: Tracing of radiolabeled compound in cell extracts (TRIzol, TLC, protein extract); assay type: cell-based; details: TRIzol or protein extract of treated cells, FIG. 10, 14
# Experimental: FIG. 10 is a diagram showing results of a tracing experiment with a TRIzol treated extract of cells treated with 10 μM ^14C-BRD9647 for six hours.
# In FIG. 14, the workflow and results of a ^14C-BRD9647 tracing experiment with protein extract from cells treated with ^14C-BRD9647 are shown.
smiles,measurement,setting,value
COc1ccc(N(C(=O)c2ccccc2)S(=O)(=O)c2cc(OC)ccc2OC)cc1 [^13C-BRD9647],covalent binding to purified proteins,[1],identify labeled lysines
COc1ccc(N(C(=O)c2cc(F)cc(F)c2F)S(=O)(=O)c2cc(OC)ccc2OC)cc1 [Compound 4],growth inhibition in MOLP5 cells compared with other analogs,MOLP5 cells [2],all mono substituted analogs appear to inhibit growth substantially more than the tri-fluorinated analog
COc1ccc(N(C(=O)c2ccc(F)cc2)S(=O)(=O)c2cc(OC)ccc2OC)cc1 [Compound 1],growth inhibitory activity in MOLP5 cells compared with BRD9647,MOLP5 cells [2]; FIG. 3,"similar, if not increased efficacy to BRD9647"
same,growth inhibition in MOLP5 cells compared with other analogs,MOLP5 cells [2],increased growth inhibition at each concentration of active over m-fluorobenzoyl (zb-179-2) or o-fluorobenzoyl analogs (zb-16-14)
COc1ccc(N(C(=O)c2ccccc2)S(=O)(=O)c2cc(OC)ccc2OC)cc1 [BRD9647],toxicity to myeloma cells with and without stromal co-culture,[3],selectively toxic to stroma-dependent myeloma cells
same,viability of cell line panel,[4],"inhibited stroma-dependent multiple myeloma (MM) cells, but not most cell lines"
same,sensitivity of MOLP5 cells expressing wild-type AZIN1,[5],wild-type AZIN1 expression in MOLP5 cells conferred resistance to BRD9647
same,growth inhibition in presence of excess spermidine,MOLP5 cells [6],excess spermidine rescued BRD9647 growth inhibition
same,gene expression signature of treated cells,MOLP5 cells [7],under ER stress or amino acid deprivation
same,benzoylated lysines in treated cells,[8],an increase in benzoylated lysines
COc1ccc(N(C(=O)c2ccccc2)S(=O)(=O)c2cc(OC)ccc2OC)cc1 [^14C-BRD9647],protein binding in treated cells,BRD9647-sensitive cells,suggest protein binding or modification of proteins; also recorded: tight protein binding at ˜15 kD molecular weight
same,covalent binding to purified proteins,[1],covalent binding of ^14C-BRD9647 with purified proteins was possible
